Source: patent publication US4237068A, “Primary aminoacylanilides” (priority 1978, dated 1980)
Like-named read-outs stand apart in the source and are kept apart here.

Legend:
[1] = Relative potency against chloroform induced fibrillation in mice, subcutaneous (Table IV); assay type: in vivo; conditions: 20 min, statistical mean (confidence limits)
Protocol: (§1) The experiments on mice were performed according to a modification of the method described by J. W. Lawson, "Antiarrhythmic activity of some isoquinoline derivatives determined by a rapid screening procedure in the mouse," J. Pharm. Exp. Therap. Vol. 160, pp. 22-31 (1968). This method is based upon the observation that when an unanesthetized, untreated mouse is exposed to chloroform vapor its respiration soon ceases and at that time both electrocardiographic and visual inspection reveal that the cardiac ventricles are fibrillating. If the mouse is treated appropriately with known antiarrhythmic agents prior to exposure to chloroform, the respiratory failure is not accompanied by ventricular fibrillation.
The procedure used was a modification of the method previously described. The modification involved using a standard time of 20 minutes for each test run and four different doses of the same drug. Route of administration was subcutaneous.

frog sciatic nerve = assay: In vitro local anesthetic effect on frog sciatic nerve; conditions: 20 mM solution, after exposure for 96 min
mice = assay: Ataxia in mice just before CHCl3 challenge, oral (Table I); assay type: in vivo; conditions: LD0.1 dose
Description: Immediately after cessation of respiration each mouse was removed from the beaker, its thorax was opened and its heart was examined for the presence of absence of ventricular fibrillation. The nature of the cardiac rhythm was then confirmed by electrocardiographic recordings. Whenever fibrillation was not evident, the heart was touched with forceps. The heart was considered as fibrillating if fine tremulous movements were present on the surface of the ventricle and persisted for at least 5 seconds after the thoracotomy or the mechanical stimulus. Ventricular fibrillation was considered absent in those animals in which coordinated ventricular activity was evident following such procedures.

[2] = Antifibrillatory effect in mice: protection against chloroform-induced ventricular fibrillation, oral (Table I); assay type: in vivo, female Swiss albino mice (HAM/ICR)
Protocol: as §1

[3] = Response of unanesthetized dogs to intravenous infusion on first day after coronary artery ligation (Table III)
Protocol: In this method the dogs were anesthetized, the heart was exposed, and the anterior descending branch of the left coronary artery was ligated in two stages. The thorax was closed and the dog was allowed to recover from the anesthesia. […] The electrocardiographic, cardiovascular and other drug effects were monitored.
The dosage schedule was: 1st hr.: 15 mg/kg/hr; 2nd hr.: 30 mg/kg/hr; 3rd hr.: 60 mg/kg/hr. Infusions were stopped at the first sign of toxicity other than emesis.

[4] = mouse, in vivo
[5] = Expected antiarrhythmic oral dosage in humans; assay type: in vivo
[6] = assay type: in vivo, dogs; conditions: for Overt toxicity: convulsions, onset / Overt toxicity: emesis / Overt toxicity: nystagmus / Overt toxicity: other / Overt toxicity: tremors / Overt toxicity: convulsions, duration: po
Description: (§2) Vol. 1, pp. 1318-1328 (1950). […] The electrocardiographic, cardiovascular and other drug effects were monitored.

[7] = Ventricular arrhythmias in unanesthetized dogs after coronary artery ligation (modified Harris method), 3-amino-2',6'-butyroxylidide (Table VI); assay type: in vivo
Description: as §2
The electrocardiographic, cardiovascular and other drug effects were monitored.

[8] = cited from earlier work
[9] = i.v. infusion, cumulative, one value per dog
[10] = oral and intravenous doses, unanesthetized dogs
[11] = intravenous, first day after ligation

Cc1cccc(C)c1NC(=O)C(C)N (racemic) [2-amino-2',6'-propionoxylidide]
Relative potency (ED50 test compound/ED50 lidocaine) [1]: 0.33 (0.20-0.54) | block of the action potential of the nerve (frog sciatic nerve): does not block the action potential at all | Proportion of mice in each group having ataxia just before CHCl3 challenge (mice; 20 min): 10/10 | Proportion of mice in each group having ataxia just before CHCl3 challenge (mice; 40 min): 10/10 | Proportion of mice in each group having ataxia just before CHCl3 challenge (mice; 80 min): 8/10 | Proportion of mice in each group having ataxia just before CHCl3 challenge (mice; 160 min): 5/10 | Proportion of mice in each group protected against fibrillation at LD0.1 ([2]; 20 min before CHCl3 challenge): 9/10 | Proportion of mice in each group protected against fibrillation at LD0.1 ([2]; 40 min before CHCl3 challenge): 9/10 | Proportion of mice in each group protected against fibrillation at LD0.1 ([2]; 80 min before CHCl3 challenge): 10/10 | Proportion of mice in each group protected against fibrillation at LD0.1 ([2]; 160 min before CHCl3 challenge): 9/10 | Toxic doses (cumul.) [3, 9]: 81 mg/kg | convulsions incidence ([4]; 251 mg/kg): 34% | dosage that should be effective for humans [5]: about 6 grams/day | adverse reactions ([6]; dog, in vivo): unaccompanied by any discernible adverse reactions | Overt toxicity: convulsions, onset ([6]; dog, in vivo, 50 mg/kg): None | Overt toxicity: emesis ([6]; dog, in vivo, 50 mg/kg): None | Overt toxicity: nystagmus ([6]; dog, in vivo, 50 mg/kg): None | Overt toxicity: other ([6]; dog, in vivo, 50 mg/kg): None | Overt toxicity: tremors ([6]; dog, in vivo, 50 mg/kg): None | Overt toxicity: convulsions, onset ([6]; dog, in vivo, 100 mg/kg): None | Overt toxicity: emesis ([6]; dog, in vivo, 100 mg/kg): None | Overt toxicity: nystagmus ([6]; dog, in vivo, 100 mg/kg): None | Overt toxicity: other ([6]; dog, in vivo, 100 mg/kg): None | Overt toxicity: tremors ([6]; dog, in vivo, 100 mg/kg): None | Overt toxicity: convulsions, onset ([6]; dog, in vivo, 150 mg/kg): None | Overt toxicity: nystagmus ([6]; dog, in vivo, 150 mg/kg): None | Overt toxicity: other ([6]; dog, in vivo, 150 mg/kg): None | Overt toxicity: tremors ([6]; dog, in vivo, 150 mg/kg): None | Overt toxicity: convulsions, duration ([6]; dog, in vivo, 200 mg/kg): > 3 min | Overt toxicity: nystagmus ([6]; dog, in vivo, 200 mg/kg): None | Overt toxicity: other ([6]; dog, in vivo, 200 mg/kg): None | Overt toxicity: convulsions, duration ([6]; dog, in vivo, 300 mg/kg): 17 min | Overt toxicity: convulsions, onset ([6]; dog, in vivo, 300 mg/kg): None | Overt toxicity: emesis ([6]; dog, in vivo, 300 mg/kg): None | Overt toxicity: nystagmus ([6]; dog, in vivo, 300 mg/kg): None | Overt toxicity: other ([6]; dog, in vivo, 300 mg/kg): None | Overt toxicity: tremors ([6]; dog, in vivo, 300 mg/kg): None | suppression of the ventricular arrhythmias [6, 10]: distinct suppression of the ventricular arrhythmias | Maximum antiarrhythmic activity, partial clearing, onset ([6]; oral, cumul. dose 50 mg/kg as HCl, 50-95% reduction of abnormal ventricular beats): None

Cc1cccc(C)c1NC(=O)CC(C)N (centres unmarked) [3-amino-2',6'-butyroxylidide]
Relative potency (ED50 test compound/ED50 lidocaine) [1]: 0.99 (0.60-1.9) | adverse reactions ([7]; dog, in vivo): unaccompanied by any discernible adverse reactions | Toxicity: convulsions [7, 11]: None | Toxicity: deaths [7, 11]: None | suppression of the ventricular arrhythmias [7, 10]: distinct suppression of the ventricular arrhythmias

CCN(CC)CCNC(=O)c1ccc(N)cc1 [PROCAINAMIDE]
Proportion of mice in each group having ataxia just before CHCl3 challenge (mice; 5 min): 0/10 | Proportion of mice in each group having ataxia just before CHCl3 challenge (mice; 10 min): 0/10 | Proportion of mice in each group having ataxia just before CHCl3 challenge (mice; 20 min): 0/10 | Proportion of mice in each group protected against fibrillation at LD0.1 ([2]; 5 min before CHCl3 challenge): 0/10 | Proportion of mice in each group protected against fibrillation at LD0.1 ([2]; 10 min before CHCl3 challenge): 1/10 | Proportion of mice in each group protected against fibrillation at LD0.1 ([2]; 20 min before CHCl3 challenge): 0/10

C=C[C@H]1C[N@@]2CC[C@H]1C[C@@H]2[C@@H](O)c1ccnc2ccc(OC)cc12 [QUINIDINE]
Proportion of mice in each group having ataxia just before CHCl3 challenge (mice; 20 min): 0/10 | Proportion of mice in each group having ataxia just before CHCl3 challenge (mice; 40 min): 2/10 | death (mice; 40 min group): 1 death | death (mice; 80 min group): 1 death | Proportion of mice in each group protected against fibrillation at LD0.1 ([2]; 20 min before CHCl3 challenge): 10/10 | Proportion of mice in each group protected against fibrillation at LD0.1 ([2]; 40 min before CHCl3 challenge): 9/9 | Proportion of mice in each group protected against fibrillation at LD0.1 ([2]; 80 min before CHCl3 challenge): 9/9

CCN(CC)CC(=O)Nc1c(C)cccc1C [lidocaine, 2-diethylamino-2',6'-acetoxylidide]
Proportion of mice in each group having ataxia just before CHCl3 challenge (mice; 10 min): 0/10 | Proportion of mice in each group having ataxia just before CHCl3 challenge (mice; 20 min): 9/10 | Proportion of mice in each group having ataxia just before CHCl3 challenge (mice; 40 min): 0/10 | Proportion of mice in each group having ataxia just before CHCl3 challenge (mice; 80 min): 0/10 | Proportion of mice in each group protected against fibrillation at LD0.1 ([2]; 10 min before CHCl3 challenge): 9/10 | Proportion of mice in each group protected against fibrillation at LD0.1 ([2]; 20 min before CHCl3 challenge): 10/10 | Proportion of mice in each group protected against fibrillation at LD0.1 ([2]; 40 min before CHCl3 challenge): 7/10 | Proportion of mice in each group protected against fibrillation at LD0.1 ([2]; 80 min before CHCl3 challenge): 0/10 | duration of blood levels ([8]; lidocaine): fairly short | oral effectiveness ([8]; oral, due to low levels of the drug in the blood): not orally effective | loss of the drug after oral administration ([8]; oral, probably due to the functions of the liver): pronounced loss of the drug | minimal effective dose ([3]; Canis lupus familiaris, iv, read-out: Antiarrhythmic doses (cumul.), i.v. infusion, cumulative, one value per dog): 36 mg/kg | Antiarrhythmic doses (cumul.) [3, 9]: 55 mg/kg | Number of dogs showing antiarrhythmic effect ([3]; i.v. infusion, dogs tested: lidocaine 2, 2-amino-2',6'-propionoxylidide 1, abnormal beats < 5% of total): 2 | Duration of antiarrhythmic effect ([3]; i.v. infusion, return of 50% of suppressed abnormal ventricular beats, one value per dog): 5 min

CCNC(C)C(=O)Nc1c(C)cc(C)cc1C (centres unmarked) [secondary amine]
ataxia incidence [4]: 100% | convulsions incidence [4]: 90%
